Non-standard residues stand in square brackets, D forms with d. Residues, ends and D or L forms follow the SMILES beside them. pT = C[C@@H](OP(=O)(O)O)[C@H](N)C(=O)O
Tests used:
A-CAT D663S = experiment: mant-nucleotide binding to A-CAT D663S; design: species or system Dictyostelium; conditions: for Kd: A-CAT D663S, 22 °C, 2 mM MgCl2, 1 mM dithiothreitol, 20 mM TES, pH 7.0, mean and standard deviation of at least 3 separate experiments; for effect of the D663S mutation on nucleotide binding: compared with wild-type A-CAT
Experimental: (§1) Assays were carried out at 22 °C in a buffer containing 2 mM MgCl2, 1 mM dithiothreitol and 20 mM TES, pH 7.0. Kinase assays contained 20 μM myelin basic protein (MBP), 0.5–2 μM A-CAT and 200 μM [γ-^32P]ATP (specific activity 100 cpm/pmol). At each time point, 20 μl aliquots of the reaction mixture were spotted onto squares of Whatman P81 phosphocellulose paper, which were then washed 1% phosphoric acid, immersed in ScintiVerse Universal LS Mixture (Fisher Scientific), and counted using a Beckman LS 9000 scintillation counter. Assays to measure A-CAT-Δ809 activity in the presence of the QQG(p)TMVMPD and QQG(p)TMSMPD peptides were carried out as described. ATPase activity was assayed using 250 μM ATP and release of inorganic phosphate (Pi) was measured using the Pi ColorLock Gold phosphate detection system (Innova Biosciences). Data from the initial linear portion of the time courses were used to calculate kinase and ATPase activity. Nucleotide binding assays using mant-ATP and mant-ADP were carried out as previously described. Results represent the mean and standard deviation of at least 3 separate experiments.

A-CAT Y647F = experiment: mant-nucleotide binding to A-CAT Y647F; design: species or system Dictyostelium; conditions: 22 °C, 2 mM MgCl2, 1 mM dithiothreitol, 20 mM TES, pH 7.0, mean and standard deviation of at least 3 separate experiments
Experimental: as §1

A-CAT D663A = experiment: mant-nucleotide binding to A-CAT D663A; design: species or system Dictyostelium; conditions: for Kd: A-CAT D663A, 22 °C, 2 mM MgCl2, 1 mM dithiothreitol, 20 mM TES, pH 7.0, mean and standard deviation of at least 3 separate experiments; for effect of the D663A mutation on nucleotide binding: compared with wild-type A-CAT
Experimental: as §1

A-CAT Y647A = experiment: mant-nucleotide binding to A-CAT Y647A; design: species or system Dictyostelium; conditions: for Kd: A-CAT Y647A, 22 °C, 2 mM MgCl2, 1 mM dithiothreitol, 20 mM TES, pH 7.0, mean and standard deviation of at least 3 separate experiments; for effect of the Y647A mutation on nucleotide binding: compared with wild-type A-CAT
Experimental: as §1

[1] = test system: T1, Nc1ncnc2c1ncn2[C@@H]1O[C@H](COP(=O)(O)OP(=O)(O)OP(=O)(O)O)[C@@H](O)[C@H]1O; experiment: Radiometric kinase assay with [γ-32P]ATP and 20 μM myelin basic protein as phosphate acceptor (P81 paper) at 22 °C in 2 mM MgCl2, 1 mM dithiothreitol, 20 mM TES, pH 7.0.; format: biochemical
T1 construct: A-CAT: alpha-kinase domain and Thr825 autophosphorylation site of MHCK-A
Experimental: as §1

[2] = test system: T1, Nc1ncnc2c1ncn2[C@@H]1O[C@H](COP(=O)(O)OP(=O)(O)OP(=O)(O)O)[C@@H](O)[C@H]1O; experiment: ATPase assay by inorganic phosphate release (Pi ColorLock Gold) at 22 °C in 2 mM MgCl2, 1 mM dithiothreitol, 20 mM TES, pH 7.0.; format: biochemical
Experimental: as §1

[3] = test system: T2, Nc1ncnc2c1ncn2[C@@H]1O[C@H](COP(=O)(O)OP(=O)(O)OP(=O)(O)O)[C@@H](O)[C@H]1O; experiment: Radiometric kinase assay with [γ-32P]ATP and 20 μM myelin basic protein as phosphate acceptor (P81 paper) at 22 °C in 2 mM MgCl2, 1 mM dithiothreitol, 20 mM TES, pH 7.0.; format: biochemical
T2 construct: A-CAT: alpha-kinase domain and Thr825 autophosphorylation site of MHCK-A; expressed in E. coli
Experimental: as §1

[4] = test system: T2, Nc1ncnc2c1ncn2[C@@H]1O[C@H](COP(=O)(O)OP(=O)(O)OP(=O)(O)O)[C@@H](O)[C@H]1O; experiment: ATPase assay by inorganic phosphate release (Pi ColorLock Gold) at 22 °C in 2 mM MgCl2, 1 mM dithiothreitol, 20 mM TES, pH 7.0.; format: biochemical
Experimental: as §1

eEF2K = test system: eEF2K; design: method as in PMID 22115317; conditions: with and without Ca^2+-calmodulin; ref [40]; cited from earlier work
D663S = molecular target: T3, D663S (Dictyostelium discoideum, UniProt P42527, D663S); experiment: Nucleotide binding assay with fluorescent mant-ADP on purified A-CAT, carried out as previously described (ref 51); at least 3 separate experiments.; conditions: read-out: mant-ADP Kd; SD, n = 3
T3 construct: gene mhkA; A-CAT: alpha-kinase domain and Thr825 autophosphorylation site of MHCK-A
T3 sequence (P42527 552-841 D663S): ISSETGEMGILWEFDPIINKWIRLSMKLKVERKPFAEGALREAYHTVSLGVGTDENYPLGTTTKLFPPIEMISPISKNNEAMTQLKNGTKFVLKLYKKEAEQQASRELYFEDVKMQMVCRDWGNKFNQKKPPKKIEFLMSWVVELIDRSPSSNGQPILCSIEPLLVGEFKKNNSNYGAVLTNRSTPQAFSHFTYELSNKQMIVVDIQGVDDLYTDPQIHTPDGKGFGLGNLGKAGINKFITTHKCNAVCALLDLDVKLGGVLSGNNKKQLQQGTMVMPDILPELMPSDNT
Experimental: as §1

Y647A = molecular target: T4, Y647A (Dictyostelium discoideum, UniProt P42527, Y647A); experiment: as above; conditions: read-out: mant-ADP Kd; SD, n = 3
T4 construct: gene mhkA; A-CAT: alpha-kinase domain and Thr825 autophosphorylation site of MHCK-A
T4 sequence (P42527 552-841 Y647A): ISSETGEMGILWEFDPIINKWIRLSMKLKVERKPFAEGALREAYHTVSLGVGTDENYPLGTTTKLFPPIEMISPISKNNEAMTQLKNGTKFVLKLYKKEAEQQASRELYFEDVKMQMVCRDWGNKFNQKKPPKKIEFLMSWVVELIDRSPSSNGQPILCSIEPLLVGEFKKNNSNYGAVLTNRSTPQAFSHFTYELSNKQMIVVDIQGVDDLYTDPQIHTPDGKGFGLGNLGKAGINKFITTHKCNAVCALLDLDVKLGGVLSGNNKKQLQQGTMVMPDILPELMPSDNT
Experimental: as §1

A-CAT WT = molecular target: T5, A-CAT WT (Dictyostelium discoideum, UniProt P42527); experiment: as above; conditions: SD, n = 3
T5 construct: gene mhkA; A-CAT: alpha-kinase domain and Thr825 autophosphorylation site of MHCK-A; expressed in E. coli
T5 sequence (P42527 552-841): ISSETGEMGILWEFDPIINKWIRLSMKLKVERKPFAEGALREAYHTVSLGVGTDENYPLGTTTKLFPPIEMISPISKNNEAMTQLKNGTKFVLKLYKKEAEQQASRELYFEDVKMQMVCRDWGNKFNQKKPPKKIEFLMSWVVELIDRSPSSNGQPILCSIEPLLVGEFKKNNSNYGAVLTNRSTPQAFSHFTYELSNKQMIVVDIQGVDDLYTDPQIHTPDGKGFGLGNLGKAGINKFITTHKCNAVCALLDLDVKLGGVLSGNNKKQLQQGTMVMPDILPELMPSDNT
Experimental: as §1

D663A = molecular target: T6, D663A (Dictyostelium discoideum, UniProt P42527, D663A); experiment: as above; conditions: read-out: mant-ADP Kd; SD, n = 3
T6 construct: gene mhkA; A-CAT: alpha-kinase domain and Thr825 autophosphorylation site of MHCK-A; expressed in E. coli
T6 sequence (P42527 552-841 D663A): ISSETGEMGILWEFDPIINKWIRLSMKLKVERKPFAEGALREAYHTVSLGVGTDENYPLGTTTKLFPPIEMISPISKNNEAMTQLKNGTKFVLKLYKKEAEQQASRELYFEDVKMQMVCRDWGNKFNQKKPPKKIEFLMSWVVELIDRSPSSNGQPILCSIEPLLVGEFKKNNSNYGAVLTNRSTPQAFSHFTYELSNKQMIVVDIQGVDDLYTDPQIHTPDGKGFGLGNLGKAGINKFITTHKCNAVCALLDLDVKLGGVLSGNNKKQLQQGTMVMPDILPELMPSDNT
Experimental: as §1

A-CAT-Δ809 = molecular target: T7, A-CAT-Δ809 (Dictyostelium discoideum, UniProt P42527); experiment: Activation of truncated A-CAT-Δ809 kinase activity by phosphopeptides (Pi-pocket binding); format: biochemical; conditions: 22 °C, pH 7.0, mean and standard deviation of at least 3 separate experiments
T7 construct: A-CAT encompasses the α-kinase domain and Thr825 autophosphorylation site of MHCK-A; made in house; host or cells: E. coli (printed for A-CAT and A-CAT-D663A)
T7 sequence (P42527 552-809 limits assumed): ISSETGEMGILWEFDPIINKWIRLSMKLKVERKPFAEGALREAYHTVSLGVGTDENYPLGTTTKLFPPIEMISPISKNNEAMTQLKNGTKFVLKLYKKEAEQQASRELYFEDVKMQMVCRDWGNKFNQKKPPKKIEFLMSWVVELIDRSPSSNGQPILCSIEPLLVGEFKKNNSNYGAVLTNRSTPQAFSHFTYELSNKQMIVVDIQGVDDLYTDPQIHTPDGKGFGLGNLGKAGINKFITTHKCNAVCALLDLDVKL
Experimental: (c) The kinase activity of A-CAT-Δ809 was assayed in the presence of peptides with the sequences QQG(p)TMVMPD (closed circles) or a QQG(p)TMSMPD (open circles). […] Kinase activities are reported as a percentage of wild-type A-CAT activity.
To test whether a hydrophobic residue in the P + 2 position favors binding to the Pi-pocket, experiments were carried out using a truncated A-CAT (A-CAT-Δ809) that lacks the activating Thr825 site of autophosphorylation and two phosphopeptides: one with a valine and one with a serine at the P + 2 position (QQG(p)TMVMPD and QQG(p)TMSMPD) (Fig. 3c).
Assays were carried out at 22 °C in a buffer containing 2 mM MgCl2, 1 mM dithiothreitol and 20 mM TES, pH 7.0. Kinase assays contained 20 μM myelin basic protein (MBP), 0.5–2 μM A-CAT and 200 μM [γ-^32P]ATP (specific activity 100 cpm/pmol). At each time point, 20 μl aliquots of the reaction mixture were spotted onto squares of Whatman P81 phosphocellulose paper, which were then washed 1% phosphoric acid, immersed in ScintiVerse Universal LS Mixture (Fisher Scientific), and counted using a Beckman LS 9000 scintillation counter. Assays to measure A-CAT-Δ809 activity in the presence of the QQG(p)TMVMPD and QQG(p)TMSMPD peptides were carried out as described[29]. […] Data from the initial linear portion of the time courses were used to calculate kinase and ATPase activity.

Q: What does the source list for `CNc1ccccc1C(=O)O[C@H]1[C@@H](O)[C@H](n2cnc3c(N)ncnc32)O[C@@H]1COP(=O)(O)OP(=O)(O)OP(=O)(O)O` [mant-ATP]?
A: Kd (A-CAT D663S): 2.1 ± 0.5 µM; effect of the D663S mutation on nucleotide binding (A-CAT D663S): increased the affinity of A-CAT for nucleotide; Kd (A-CAT Y647F): 4.3 ± 1 µM; Kd (A-CAT D663A): 3.2 ± 0.9 µM; effect of the D663A mutation on nucleotide binding (A-CAT D663A): increased the affinity of A-CAT for nucleotide; Kd (A-CAT Y647A): 10 ± 3 µM; effect of the Y647A mutation on nucleotide binding (A-CAT Y647A): weakened the binding

Q: For Y647F (Dictyostelium discoideum; Y647F), which Km [1] is on record?
A: 65 ± 35 µM

Q: What about the kcat [1] of the same compound?
A: 0.00045 ± 0.000117 s⁻¹

Q: What about the Km [2] of the same compound?
A: 64 ± 2 µM

Q: And the kcat [2]?
A: 0.00633 ± 0.00117 s⁻¹

Q: With D663A (Dictyostelium discoideum; D663A) as the compound, how does the Km [3] read?
A: 54 ± 25 µM

Q: And the kcat [3]?
A: 0.00105 ± 0.000117 s⁻¹

Q: And the Km [4]?
A: 21 ± 5 µM

Q: And the kcat [4]?
A: 0.0167 ± 0.00333 s⁻¹

Q: What does the source list for `CNc1ccccc1C(=O)O[C@H]1[C@@H](O)[C@H](n2cnc3c(N)ncnc32)O[C@@H]1COP(=O)(O)OP(=O)(O)O` [mant-ADP]?
A: Kd (A-CAT D663S): 12 ± 2 µM; effect of the D663S mutation on nucleotide binding (A-CAT D663S): increased the affinity of A-CAT for nucleotide; Kd (A-CAT Y647F): 15 ± 2 µM; Kd (A-CAT D663A): 8 ± 2 µM; effect of the D663A mutation on nucleotide binding (A-CAT D663A): increased the affinity of A-CAT for nucleotide; Kd (A-CAT Y647A): 30 ± 2 µM; effect of the Y647A mutation on nucleotide binding (A-CAT Y647A): weakened the binding

Q: Which “ATP binding to eEF2K” value (eEF2K) does the source give for `Nc1ncnc2c1ncn2[C@@H]1O[C@H](COP(=O)(O)OP(=O)(O)OP(=O)(O)O)[C@@H](O)[C@H]1O` [ATP] here?
A: binds ATP in the presence and absence of Ca^2+-calmodulin

Q: And the “UV cross-linking of ATP to eEF2K” value (eEF2K)?
A: can be UV cross-linked to ATP only in the presence of Ca^2+-calmodulin

Q: Which results are given for `CNc1ccccc1C(=O)O[C@H]1[C@@H](O)[C@H](n2cnc3c(N)ncnc32)O[C@@H]1COP(=O)(O)OP(=O)(O)O` [mant-ADP, 2'/3'-O-(N-methylanthraniloyl)adenosine 5'-diphosphate]?
A: Kd (D663S): 12 ± 2 µM; Kd (Y647A): 30 ± 2 µM; Kd (A-CAT WT): 15 ± 2 µM; Kd (D663A): 8 ± 2 µM

Q: For `CSCC[C@H](NC(=O)[C@@H](NC(=O)CNC(=O)[C@H](CCC(N)=O)NC(=O)[C@@H](N)CCC(N)=O)[C@@H](C)OP(=O)(O)O)C(=O)N[C@@H](CO)C(=O)N[C@@H](CCSC)C(=O)N1CCC[C@H]1C(=O)N[C@@H](CC(=O)O)C(=O)O` [QQG(p)TMSMPD] (H-QQG[pT]MSMPD-OH), which Kd (A-CAT-Δ809; hyperbolic fit of A-CAT-Δ809 kinase activity vs peptide, assayed as described in ref [29], 2 mM MgCl2, 1 mM dithiothreitol, 20 mM TES) is on record?
A: 98 ± 12 µM

Q: And the Vmax (A-CAT-Δ809; kinase activity as a percentage of wild-type A-CAT activity, hyperbolic fit)?
A: 51 ± 3%
